Literature values as cited in patent publication US20070020218A1, “Composition and method for the treatment of psoriasis” (priority 2005, published 2007).

Legend:
degenerative arthritis = conditions: 2,250 mg daily for six weeks
[1] = test system: osteoarthritis of the knee; conditions: after 4 weeks, 252 people
knee osteoarthritis = conditions: for persistence of benefits after treatment was stopped: followed for an additional 60 days after the 90 days of treatment; for reduction of symptoms: over 90 days of treatment
[2] = test system: osteoarthritis of the knee; conditions: 85 people with osteoarthritis of the knee
[3] = oral
arthritis of the knee = conditions: 12 months, 104 individuals

## CS(C)(=O)=O [MSM, Methylsulfonyl methane]
Degenerative arthritis
  reduction in pain on average: 82%

## N[C@H]1C(O)O[C@H](CO)[C@@H](O)[C@@H]1O.O=S(=O)(O)O (stereo partly drawn) [glucosamine sulfate]
[1]
  pain and movement against placebo: significantly reduced pain and improved movement
Knee osteoarthritis
  persistence of benefits after treatment was stopped: lasted for the full 60 days
  reduction of symptoms: equally effective

## CN1C(C(=O)Nc2ccccn2)=C(O)c2ccccc2S1(=O)=O [piroxicam, reference compound]
Knee osteoarthritis
  persistence of benefits after treatment was stopped: rapidly disappeared
  reduction of symptoms: equally effective

## chondroitin sulfate
[2]
  participants with improved results: 69%
[3]
  chondroitin absorbed intact: up to 15%
Arthritis of the knee
  trial outcome against placebo: Good results
